In PubChem BioAssay AID624129 (Sanford-Burnham Center for Chemical Genomics, 2012) one finds IC50 and inhibition data, which are given here for twelve compounds.

The source made the active and inactive calls. How the calls were made is not given here.

Test in all cases: CXCR6 receptor antagonists, dose response, cell-based, beta-arrestin, DiscoveRx, APJ panel, uHTS hits (AID 624129)
Assay [1] addresses C-C chemokine receptor type 6 (Homo sapiens) (UniProt P51684). The conditions noted are these: CXCR6 beta-arrestin (DiscoveRx) antagonist cell assay.
The target in assay [2] is C-X-C chemokine receptor type 6 (Homo sapiens) (UniProt O00574). The conditions noted are these: CXCR6 beta-arrestin (DiscoveRx) antagonist cell assay.
Assay [3] has as its target Beta-galactosidase (Escherichia coli) (UniProt Q8VNN2). The conditions noted are these: CXCR6 beta-arrestin (DiscoveRx) antagonist cell assay, b-galactosidase.
Assay [4] addresses Apelin receptor (Homo sapiens) (UniProt P35414). The conditions noted are these: CXCR6 beta-arrestin (DiscoveRx) antagonist cell assay, APJ.
[5] abbreviates: CCR6, dose range 1, mean IC50 across replicates.
The mark [6] stands for this setting: CXCR6, dose range 1, mean IC50 across replicates.
Setting [7] is: CXCR6, run 1, dose range 2, at 80 µM (top of the series).
Where [8] appears, read: dose range 1, mean IC50 across replicates.

Beta-galactosidase (Escherichia coli), sequence (Q8VNN2 whole entry, looked up): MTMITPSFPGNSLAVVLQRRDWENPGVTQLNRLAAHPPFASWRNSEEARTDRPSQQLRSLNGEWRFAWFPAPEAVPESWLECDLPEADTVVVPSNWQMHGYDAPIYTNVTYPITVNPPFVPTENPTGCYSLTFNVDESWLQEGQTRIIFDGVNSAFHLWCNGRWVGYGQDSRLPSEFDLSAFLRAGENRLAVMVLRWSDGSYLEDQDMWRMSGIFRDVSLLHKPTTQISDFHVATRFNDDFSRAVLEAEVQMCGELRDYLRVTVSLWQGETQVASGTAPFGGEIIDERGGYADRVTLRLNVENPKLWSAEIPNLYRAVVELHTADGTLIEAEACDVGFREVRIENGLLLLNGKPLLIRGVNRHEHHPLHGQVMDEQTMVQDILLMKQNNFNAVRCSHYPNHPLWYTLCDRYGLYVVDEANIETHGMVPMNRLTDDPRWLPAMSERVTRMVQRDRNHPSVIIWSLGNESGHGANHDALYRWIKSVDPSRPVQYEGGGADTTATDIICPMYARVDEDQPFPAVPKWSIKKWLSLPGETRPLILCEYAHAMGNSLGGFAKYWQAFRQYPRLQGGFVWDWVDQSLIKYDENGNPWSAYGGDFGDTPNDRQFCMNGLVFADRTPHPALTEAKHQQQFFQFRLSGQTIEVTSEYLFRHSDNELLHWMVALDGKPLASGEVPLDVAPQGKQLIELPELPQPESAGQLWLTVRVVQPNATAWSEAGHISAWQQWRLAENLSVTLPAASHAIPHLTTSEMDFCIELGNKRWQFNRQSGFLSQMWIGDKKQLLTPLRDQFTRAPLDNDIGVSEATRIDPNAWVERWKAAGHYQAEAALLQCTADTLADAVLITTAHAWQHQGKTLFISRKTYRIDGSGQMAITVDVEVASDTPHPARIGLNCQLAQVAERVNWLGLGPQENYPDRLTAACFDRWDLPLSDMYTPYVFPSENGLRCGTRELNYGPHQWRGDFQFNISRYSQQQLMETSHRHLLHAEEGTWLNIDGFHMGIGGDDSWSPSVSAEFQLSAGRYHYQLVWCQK
C-X-C chemokine receptor type 6 (Homo sapiens), sequence (O00574 whole entry, looked up): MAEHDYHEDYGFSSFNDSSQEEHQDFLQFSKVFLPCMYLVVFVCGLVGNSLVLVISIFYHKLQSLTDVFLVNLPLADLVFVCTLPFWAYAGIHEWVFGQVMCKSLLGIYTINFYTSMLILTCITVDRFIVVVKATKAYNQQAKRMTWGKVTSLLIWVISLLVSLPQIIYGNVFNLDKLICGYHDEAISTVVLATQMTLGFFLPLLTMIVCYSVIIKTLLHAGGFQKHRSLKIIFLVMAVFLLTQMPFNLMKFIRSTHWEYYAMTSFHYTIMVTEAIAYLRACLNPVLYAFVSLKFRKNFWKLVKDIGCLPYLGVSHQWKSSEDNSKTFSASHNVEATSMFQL

By IC50 is commonly meant the concentration that gives 50% inhibition. By inhibition is commonly meant the relative decrease from the control value, in per cent. On to `O=C1c2sc3nc4ccccc4n3c2C(=O)N1c1ccccc1Cl`, for which the IC50 in assay [1] (CCR6, dose range 1) is 16.9 µM; in assay [1] (setting [5]), 14.9 µM; in assay [1] (CCR6, run 2, dose range 1), 12.9 µM; in assay [2] (setting [6]), 21 µM; in assay [2] (CXCR6, run 2, dose range 1), 15 µM; in assay [3] (dose range 1), 30.8 µM. Further, the IC50 in assay [3] (setting [8]) was 30.8 µM; in assay [4] (dose range 1), 23.5 µM; in assay [4] (setting [8]), 18 µM; in assay [4] (run 2, dose range 1), 16.9 µM; in assay [4] (run 3, dose range 1), 13.5 µM. For the same compound, the IC50 result in assay [2] (CXCR6, dose range 1) was “inactive”. Moreover, the inhibition in assay [2] (setting [7]) was determined as 103%.
On to `COc1ccc(NC(=O)/C(Cl)=C(/Cl)S(=O)(=O)Cc2ccc(C)cc2)cn1`, for which the IC50 was 0.489 µM in assay [1] (CCR6, dose range 1); 0.686 µM in assay [1] (setting [5]); 0.883 µM in assay [1] (CCR6, run 2, dose range 1); 0.963 µM in assay [2] (CXCR6, dose range 1); 0.897 µM in assay [2] (setting [6]); 0.832 µM in assay [2] (CXCR6, run 2, dose range 1). Further, the IC50 in assay [3] (dose range 1) was > 80 µM (inactive); in assay [3] (setting [8]), over 80 µM; in assay [4] (dose range 1), 0.686 µM; in assay [4] (setting [8]), 0.684 µM; in assay [4] (run 2, dose range 1), 0.685 µM; in assay [4] (run 3, dose range 1), 0.68 µM. Further, the inhibition in assay [2] (CXCR6, run 1, dose range 2, at 10 µM (top of the series)) was found to be 99.9%.
In the case of `Cc1cccc(C(=O)Nc2ccc(C(=O)/C=C/c3ccncc3)cc2)c1`, the IC50 in assay [1] (setting [5]) was over 80 µM; in assay [1] (CCR6, run 2, dose range 1), over 80 µM; in assay [2] (CXCR6, dose range 1) it was > 80 µM (inactive); in assay [2] (setting [6]), over 80 µM; in assay [2] (CXCR6, run 2, dose range 1), over 80 µM; in assay [3] (dose range 1), > 80 µM (inactive). The IC50 in assay [3] (setting [8]) is over 80 µM; in assay [4] (setting [8]), over 80 µM; in assay [4] (run 2, dose range 1), over 80 µM; in assay [4] (run 3, dose range 1), over 80 µM. Besides, the inhibition in assay [2] (setting [7]) was -26.4%.
`O=C(CSc1cccc2cccnc12)N/N=C/c1cccnc1`: the IC50 in assay [1] (CCR6, dose range 1) is 4.18 µM; in assay [1] (setting [5]) it was 5.05 µM; in assay [1] (CCR6, run 2, dose range 1), 5.92 µM; in assay [2] (CXCR6, dose range 1), 6.91 µM; in assay [2] (setting [6]) it was 4.34 µM; in assay [2] (CXCR6, run 1, dose range 2), 3.34 µM. Moreover, the IC50 was 4.25 µM in assay [2] (CXCR6, run 2, dose range 1); 2.87 µM in assay [2] (CXCR6, run 2, dose range 2); > 80 µM (inactive) in assay [3] (dose range 1); over 80 µM in assay [3] (setting [8]); 3.95 µM in assay [4] (dose range 1); 4.26 µM in assay [4] (setting [8]). Moreover, the IC50 was found to be 4.72 µM in assay [4] (run 2, dose range 1) and 4.11 µM in assay [4] (run 3, dose range 1).
Consider `C=C1CC2(OC1=O)c1ccccc1CCc1ccccc12`, for which the IC50 in assay [1] (CCR6, dose range 1) was 15.1 µM; in assay [1] (setting [5]), 12.9 µM; in assay [1] (CCR6, run 2, dose range 1), 10.7 µM; in assay [2] (setting [6]), 18.7 µM; in assay [2] (CXCR6, run 2, dose range 1), 15.8 µM; in assay [3] (dose range 1), > 80 µM (inactive). Moreover, the IC50 in assay [3] (setting [8]) was over 80 µM; in assay [4] (setting [8]) it was over 80 µM; in assay [4] (run 2, dose range 1) it was over 80 µM; in assay [4] (run 3, dose range 1), over 80 µM. Also, the IC50 entry in assay [2] (CXCR6, dose range 1) was “inactive”. Further, the inhibition in assay [2] (setting [7]) was found to be 58.6%.
In the case of `O=C(Nc1nccs1)c1sc2cc(Cl)ccc2c1Cl`, the IC50 in assay [1] (CCR6, dose range 1) was 9.63 µM; in assay [1] (setting [5]), 10.1 µM; in assay [1] (CCR6, run 2, dose range 1) it was 10.6 µM; in assay [2] (setting [6]), 19 µM; in assay [2] (CXCR6, run 1, dose range 2), 7.2 µM; in assay [2] (CXCR6, run 2, dose range 1), 46.1 µM. Also, the IC50 is 10.3 µM in assay [2] (CXCR6, run 2, dose range 2); > 80 µM (inactive) in assay [3] (dose range 1); over 80 µM in assay [3] (setting [8]); 48.2 µM in assay [4] (dose range 1); 46.8 µM in assay [4] (setting [8]); 45.4 µM in assay [4] (run 2, dose range 1). The IC50 in assay [4] (run 3, dose range 1) is over 80 µM. For the same compound, in assay [2] (CXCR6, dose range 1), the IC50 entry was “inactive”.
For the compound `Cc1cccc(C(=O)Nc2ccc(C(=O)/C=C/c3cccnc3)cc2)c1`, the IC50 in assay [1] (CCR6, dose range 1) is 5.35 µM; in assay [1] (setting [5]) it was 5.73 µM; in assay [1] (CCR6, run 2, dose range 1), 6.11 µM; in assay [2] (CXCR6, dose range 1), 13.9 µM; in assay [2] (setting [6]) it was 8.81 µM; in assay [2] (CXCR6, run 1, dose range 2), 6.87 µM. For the same compound, the IC50 in assay [2] (CXCR6, run 2, dose range 1) was 7.01 µM; in assay [2] (CXCR6, run 2, dose range 2) it was 7.46 µM; in assay [3] (dose range 1), > 80 µM (inactive); in assay [3] (setting [8]) it was over 80 µM; in assay [4] (dose range 1), 8.75 µM; in assay [4] (setting [8]), 9.66 µM. Moreover, the IC50 in assay [4] (run 2, dose range 1) was found to be 9.81 µM; in assay [4] (run 3, dose range 1) it was 10.4 µM.
As to `C/C(=N\NC(=O)c1cc(-c2cccs2)nc2ccccc12)c1ccccn1`, the IC50 in assay [1] (CCR6, dose range 1) was 2.42 µM; in assay [1] (setting [5]), 3.22 µM; in assay [1] (CCR6, run 2, dose range 1), 4.01 µM; in assay [2] (CXCR6, dose range 1) it was 4.85 µM; in assay [2] (setting [6]) it was 4.74 µM; in assay [2] (CXCR6, run 1, dose range 2), 2.69 µM. Also, the IC50 in assay [2] (CXCR6, run 2, dose range 1) is 6.67 µM; in assay [2] (CXCR6, run 2, dose range 2), over 79 µM; in assay [3] (dose range 1), > 80 µM (inactive); in assay [3] (setting [8]) it was over 80 µM; in assay [4] (dose range 1), 2.79 µM; in assay [4] (setting [8]), 7.52 µM. Moreover, the IC50 in assay [4] (run 2, dose range 1) turned out to be 15.3 µM; in assay [4] (run 3, dose range 1) it was 4.43 µM.
For the compound `O=C(Nc1nnc(-c2cccs2)o1)c1cccc(C(F)(F)F)c1`, the IC50 in assay [1] (setting [5]) is over 80 µM; in assay [1] (CCR6, run 2, dose range 1) it was over 80 µM; in assay [2] (CXCR6, dose range 1), > 80 µM (inactive); in assay [2] (setting [6]), over 80 µM; in assay [2] (CXCR6, run 2, dose range 1), over 80 µM; in assay [3] (dose range 1), > 80 µM (inactive). Also, the IC50 in assay [3] (setting [8]) was over 80 µM; in assay [4] (setting [8]), over 80 µM; in assay [4] (run 2, dose range 1), over 80 µM; in assay [4] (run 3, dose range 1), over 80 µM. The inhibition in assay [2] (setting [7]) is -55.9%.
For `CCOc1ccccc1NC(=O)c1nc(S(=O)(=O)Cc2ccccc2)ncc1Cl`, the IC50 in assay [1] (CCR6, dose range 1) is 8.24 µM; in assay [1] (setting [5]), 7.46 µM; in assay [1] (CCR6, run 2, dose range 1) it was 6.69 µM; in assay [2] (CXCR6, dose range 1), 9.59 µM; in assay [2] (setting [6]), 10.7 µM; in assay [2] (CXCR6, run 1, dose range 2), 11.2 µM. Also, the IC50 in assay [2] (CXCR6, run 2, dose range 1) was 11.5 µM; in assay [2] (CXCR6, run 2, dose range 2), 10.7 µM; in assay [3] (dose range 1) it was > 80 µM (inactive); in assay [3] (setting [8]) it was over 80 µM; in assay [4] (dose range 1) it was 13.4 µM; in assay [4] (setting [8]), 13.4 µM. The IC50 in assay [4] (run 2, dose range 1) was 13.4 µM; in assay [4] (run 3, dose range 1), over 80 µM.
As to `C=CCn1nc([N+](=O)[O-])nc1Sc1cccc2cccnc12`, the IC50 in assay [1] (CCR6, dose range 1) was 39 µM; in assay [1] (setting [5]) it was 35.3 µM; in assay [1] (CCR6, run 2, dose range 1), 31.6 µM; in assay [2] (setting [6]) it was 59.6 µM; in assay [2] (CXCR6, run 2, dose range 1), over 80 µM; in assay [3] (dose range 1), > 80 µM (inactive). For the same compound, the IC50 was over 80 µM in assay [3] (setting [8]); 75.1 µM in assay [4] (dose range 1); 49.3 µM in assay [4] (setting [8]); 36 µM in assay [4] (run 2, dose range 1); 36.8 µM in assay [4] (run 3, dose range 1). Further, the IC50 entry in assay [2] (CXCR6, dose range 1) was “inactive”. Besides, the inhibition in assay [2] (setting [7]) came out at 82.2%.
Turning to `CN(C)c1nc(=NCc2ccco2)ss1`, the IC50 in assay [1] (CCR6, dose range 1) was 43.4 µM; in assay [1] (setting [5]), 38.8 µM; in assay [1] (CCR6, run 2, dose range 1), 34.2 µM; in assay [2] (setting [6]), 55.9 µM; in assay [2] (CXCR6, run 2, dose range 1) it was 33.6 µM; in assay [3] (dose range 1) it was > 80 µM (inactive). Moreover, the IC50 in assay [3] (setting [8]) is over 80 µM; in assay [4] (dose range 1), 31.8 µM; in assay [4] (setting [8]), 24.9 µM; in assay [4] (run 2, dose range 1), 18.1 µM; in assay [4] (run 3, dose range 1), over 80 µM. In addition, the IC50 entry in assay [2] (CXCR6, dose range 1) is “inactive”. Also, in assay [2] (setting [7]), the inhibition is 82.8%.
